Measured values reported in US8178547B2, “Heterocyclic antiviral compounds” (Roche Palo Alto LLC, priority 2008, dated 2012).
pIC50: −log10 of the molar value.

Key:
[1] = system: HCV replicon cells (2209-23), genotype 1b replicon; experiment: HCV replicon assay (Renilla luciferase reporter); type: cell-based, HCV genotype 1b; conditions: Hepatitis C virus, 72 h; 2209-23 cells, three days incubation
[2] = molecular target: T1, HCV polymerase (NS5B570n-Con1) (Hepatitis C virus genotype 1b, UniProt Q9WMX2); experiment: HCV NS5B RNA polymerase activity; type: biochemical, HCV Con1 strain
T1 construct: a 21 amino acid C-terminal deletion of full-length HCV polymerase; made in house; host or cells: E. coli BL21(DE3) pLysS, plasmid pET17b
Experimental: The enzymatic activity of HCV polymerase (NS5B570n-Con1) was measured as the incorporation of radiolabeled nucleotide monophosphates into acid insoluble RNA products. Unincorporated radiolabeled substrate was removed by filtration and scintillant was added to the washed and dried filter plate containing radiolabeled RNA product. The amount of RNA product generated by NS5B570n-Con1 at the end of the reaction was directly proportional to the amount of light emitted by the scintillant.
The HCV polymerase used in the enzymatic activity assay is a 21 amino acid C-terminal deletion of full-length HCV polymerase derived from HCV Con1 strain, genotype 1b (GenBank accession number AJ242654) (NS5B570n-Con1). The NS5B570n-Con1 was sub-cloned downstream to the T7 promoter of the plasmid expression construct pET17b and transformed into E. coli strain BL21(DE3) pLysS for protein expression. A single colony was used to start an innoculum for a 10 L culture in LB media supplemented with 100 μg/mL ampicillin at 37° C. Protein expression was induced by the addition of 0.25 mM isopropyl-β-D-thiogalactopyranoside (IPTG) when the optical density of the culture at […] was 0.8. Induction of protein expression was carried out at 30° C. for 16 h after which the cells were harvested by centrifugation. NS5B570n-Con1 was purified to homogeneity using a three-column purification protocol including subsequent column chromatography on Ni-NTA, SP-Sepharose HP and Superdex 75 resins.
[…] TRK-412; specific activity: 30 to 60 Ci/mmol;), 1 μM each ATP, CTP, and GTP, 40 mM Tris-HCl pH 8.0, 40 mM NaCl, 4 mM DTT (dithiothreitol), 4 mM MgCl2, 5 μl of compound serial diluted in DMSO, and nuclease-free water to a final reaction volume of 50 μl. Enzymatic reactions in the presence of poly A RNA template (see section 0004) contained 20 nM Poly A:oligo(rU)16 premixed (see section 0004), 20 nM NS5B570n-Con1 enzyme, 1 μCi of tritiated UTP (Perkin Elmer catalog no. TRK-412; specific activity: 30 to 60 Ci/mmol), 40 mM Tris-HCl pH 8.0, 40 mM NaCl, 4 mM DTT (dithiothreitol), 4 mM MgCl2, 5 μl of compound serial diluted in DMSO, and nuclease-free water to a final reaction volume of 50 μl. Reaction mixtures were assembled in 96-well filter plates (cat #MADVN0B, Millipore Co.) and incubated for 2 h at 30° C. Reactions were stopped by addition of 10% final (v/v) trichloroacetic acid and incubated for 40 min at 4° C. Reactions were filtered, washed with 8 reaction volumes of 10% (v/v) trichloroacetic acetic acid, 4 reaction volumes of 70% (v/v) ethanol, air dried, and 25 μl of scintillant (Microscint 20, Perkin-Elmer) was added to each reaction well.
Two RNA templates were used to assay compounds described herein. The cIRES RNA template was 377 nucleotide long and consisted of a partial complementary sequence (36 nucleotides) of the core protein, followed by 341 nucleotide of the complementary sequence of the internal ribosome entry site. The poly A RNA template (GE Amersham catalog number 27-4110) was a homopolymeric RNA pre-annealed to a oligo(rU)16 primer at a molar ratio of 3-to-1 (primer-template).
The amount of light emitted from the scintillant was converted to counts per minute (CPM) on a Topcount® plate reader (Perkin-Elmer, Energy Range: Low, Efficiency Mode: Normal, Count Time: 1 min, Background Subtract: none, Cross talk reduction: Off).
Data was analyzed in Excel® (Microsoft) and ActivityBase® (Idbs®). The reaction in the absence of enzyme was used to determine the background signal, which was subtracted from the enzymatic reactions. […] All data was expressed as a percentage of the positive control. The compound concentration at which the enzyme-catalyzed rate of RNA synthesis was reduced by 50%

in vitro = conditions: human
HCV = conditions: cited from earlier work
[3] = NS5B pol inhibition IC50, as in Example 32 (20 nM RNA template)
[4] = NS5B pol inhibition IC50, cell values marked ^2, as in Example 32 except RNA template concentration 3 nM (footnote 3)

COc1c(CCc2ccc(NS(C)(=O)=O)cc2)cc(-c2ncc[nH]c2=O)cc1C(C)(C)C [Compound I-1, N-(4-{2-[3-tert-Butyl-2-methoxy-5-(3-oxo-3,4-dihydro-pyrazin-2-yl)-phenyl]-ethyl}-phenyl)-methanesulfonamide] gave a melting point of 238 to 240 °C, a pIC50 [1] of 6.95 and a pIC50 [2, 3] of 7.82. The CC50 (in vitro) was 24200 nM.

COc1c(NC(=O)c2ccc(NS(C)(=O)=O)cc2)cc(-c2ncc[nH]c2=O)cc1C(C)(C)C [Compound I-4, N-[3-tert-Butyl-2-methoxy-5-(3-oxo-3,4-dihydro-pyrazin-2-yl)-phenyl]-4-methanesulfonylamino-benzamide] showed a pIC50 [1] of 6.46 and a pIC50 [2, 3] of 8.22.

With COc1c(/C=C/c2ccc(NS(C)(=O)=O)cc2C(=O)O)cc(-c2ccn[nH]c2=O)cc1C(C)(C)C [Compound I-9, 2-{(E)-2-[3-tert-Butyl-2-methoxy-5-(3-oxo-2,3-dihydro-pyridazin-4-yl)-phenyl]-vinyl}-5-methanesulfonylamino-benzoic acid] the pIC50 [1] was 7.15 and the pIC50 [2, 3] was 9.70.

Work on COc1c(/C=C/c2ccc(NS(C)(=O)=O)cc2)cc(-c2ccn[nH]c2=O)cc1C(C)(C)C [Compound I-13, N-(4-{(E)-2-[3-tert-Butyl-2-methoxy-5-(3-oxo-2,3-dihydro-pyridazin-4-yl)-phenyl]-vinyl}-phenyl)-methanesulfonamide] yielded a pIC50 [1] of 9.00 and a pIC50 [2, 3] of 8.40.

Compound CC1(C)COc2c(-c3ccn[nH]c3=O)cc(/C=C/c3ccc(NS(C)(=O)=O)cc3)cc21 [Compound I-21, N-(4-{(E)-2-[3,3-Dimethyl-7-(3-oxo-2,3-dihydro-pyridazin-4-yl)-2,3-dihydro-benzofuran-5-yl]-vinyl}-phenyl)-methanesulfonamide] has a melting point of 255 to 257 °C, a pIC50 [1] of 6.95 and a pIC50 [2, 4] of 8.70.

COc1c(/C=C/c2ccc(NS(C)(=O)=O)cc2)cc(-c2cnc[nH]c2=O)cc1C(C)(C)C [Compound I-22, N-(4-{(E)-2-[3-tert-Butyl-2-methoxy-5-(6-oxo-1,6-dihydro-pyrimidin-5-yl)-phenyl]-vinyl}-phenyl)-methanesulfonamide] gave a pIC50 [2, 4] of 8.70 and a CC50 (in vitro) of 23200 nM.

In the case of COC(=O)c1cc(NS(C)(=O)=O)ccc1/C=C/c1cc(-c2cnc(OCc3ccccc3)[nH]c2=O)cc(C(C)(C)C)c1OC [Compound I-24], the pIC50 [1] was 7.40, the pIC50 [2, 4] was 7.96 and the CC50 (in vitro) was 4700 nM.

Compound COc1c(/C=C/c2ccc(NS(C)(=O)=O)cc2)cc(-c2c[nH]c(=O)[nH]c2=O)c2c1C(C)(C)CO2 [Compound I-28, N-(4-{(E)-2-[7-(2,4-dioxo-1,2,3,4-tetrahydro-pyrimidin-5-yl)-4-methoxy-3,3-dimethyl-2,3-dihydro-benzofuran-5-yl]-vinyl}-phenyl)-methanesulfonamide] has a melting point of over 300 °C and a pIC50 [2, 3] of 9.22.

With COc1c(/C=C/c2ccc(NS(C)(=O)=O)cc2)cc(-c2c[nH]c(=O)[nH]c2=O)cc1C1(C(F)F)CC1 [Compound I-30, N-(4-{(E)-2-[3-(1-Difluoromethyl-cyclopropyl)-5-(2,4-dioxo-1,2,3,4-tetrahydro-pyrimidin-5-yl)-2-methoxy-phenyl]-vinyl}-phenyl)-methanesulfonamide] the melting point was 292 to 295 °C and the pIC50 [2, 3] was 9.52.

COc1c(/C=C/c2ccc(NS(C)(=O)=O)cc2)cc(-c2ncc[nH]c2=O)cc1C1(C(F)F)CC1 [Compound I-31, N-(4-{(E)-2-[3-(1-Difluoromethyl-cyclopropyl)-2-methoxy-5-(3-oxo-3,4-dihydro-pyrazin-2-yl)-phenyl]-vinyl}-phenyl)-methanesulfonamide] showed a melting point of 241 to 243 °C and a pIC50 [2, 3] of 9.52.

COc1c(/C=C/c2ccc(NS(C)(=O)=O)cc2)cc(-c2cnc(Cl)[nH]c2=O)cc1C(C)(C)C [Compound I-32, N-(4-{(E)-2-[3-tert-Butyl-5-(2-chloro-6-oxo-1,6-dihydro-pyrimidin-5-yl)-2-methoxy-phenyl]-vinyl}-phenyl)-methanesulfonamide] showed a melting point of over 300 °C and a pIC50 [2, 3] of 8.30.

In the case of COc1c(/C=C/c2ccc(NS(C)(=O)=O)cc2)cc(-c2cnc(N(C)C)[nH]c2=O)cc1C(C)(C)C [Compound I-33, N-(4-{(E)-2-[3-tert-Butyl-5-(2-dimethylamino-6-oxo-1,6-dihydro-pyrimidin-5-yl)-2-methoxy-phenyl]-vinyl}-phenyl)-methanesulfonamide], the melting point was over 300 °C and the pIC50 [2, 3] was 8.59.

Compound COc1ncc(-c2cc(/C=C/c3ccc(NS(C)(=O)=O)cc3)c(OC)c(C(C)(C)C)c2)c(=O)[nH]1 [Compound I-34, N-(4-{(E)-2-[3-tert-Butyl-2-methoxy-5-(2-methoxy-6-oxo-1,6-dihydro-pyrimidin-5-yl)-phenyl]-vinyl}-phenyl) methanesulfonamide] has a melting point of 296 to 299 °C and a pIC50 [2, 3] of 9.22.

For COc1c(/C=C/c2ccc(NS(C)(=O)=O)cc2)cc(-c2c[nH]c(=O)[nH]c2=O)cc1C(F)(F)F [Compound I-35, N-(4-{(E)-2-[5-(2,4-Dioxo-1,2,3,4-tetrahydro-pyrimidin-5-yl)-2-methoxy-3-trifluoromethyl-phenyl]-vinyl}-phenyl)-methanesulfonamide], the melting point was 255 to 258 °C and the pIC50 [2, 3] was 9.30.

COCc1cc(NS(C)(=O)=O)ccc1/C=C/c1cc(-c2c[nH]c(=O)[nH]c2=O)cc(C(C)(C)C)c1OC [Compound I-40, N-(4-{(E)-2-[3-tert-Butyl-5-(2,4-dioxo-1,2,3,4-tetrahydro-pyrimidin-5-yl)-2-methoxy-phenyl]-vinyl}-3-methoxymethyl-phenyl)-methanesulfonamide] gave a melting point of 172 to 175 °C and a pIC50 [2, 3] of 8.55.

With COc1c(/C=C/c2ccc(NS(C)(=O)=O)cc2)cc(-c2c[nH]c(=O)[nH]c2=O)cc1OC(F)(F)F [Compound I-42, N-(4-{(E)-2-[5-(2,4-Dioxo-1,2,3,4-tetrahydro-pyrimidin-5-yl)-2-methoxy-3-trifluoromethoxy-phenyl]-vinyl}-phenyl)-methanesulfonamide] the melting point was 202 to 205 °C and the pIC50 [2, 3] was 8.17.

For NC(=O)c1ncn([C@@H]2O[C@H](CO)[C@@H](O)[C@H]2O)n1 [ribavirin, 1-((2R,3R,4S,5R)-3,4-Dihydroxy-5-hydroxymethyl-tetrahydro-furan-2-yl)-1H[1,2,4]triazole-3-carboxylic acid amide], the “serum levels of HCV-RNA” value (HCV; monotherapy / sole treatment) is given as “does not lower serum levels of HCV-RNA” and the “patients with serum amino transferase levels reduced to normal” value (HCV; monotherapy) is given as 40%.
